Laboratory results as given in patent US20230278984A1 (Global Blood Therapeutics, Inc., priority 2020, published 2023).

Target: T1, Human pyruvate kinase R (PKR) (Homo sapiens, UniProt P30613)
T1 construct: Human pyruvate kinase R (PKR), residues 14-574; 6x-His (N, cleaved yes); 8x-Arg (N, cleaved yes); SUMO (N, cleaved yes); host or cells: E. coli
Experiment: Biochemical assay for activation of pyruvate kinase R (Kinase-Glo luminescence measurement of ATP generation)
Conditions: for AC50: PKR biochemical assay, 0.1 nM PKR, 0.3 mM ADP, 2 mM FBP, 0.1 mM PEP; for Emax: maximal activation level relative to the activation level achieved by the literature compound AG-348 @ 10 μM
Procedure: Human pyruvate kinase R (PKR), residues 14-574, and human pyruvate kinase M2, residues 1-531, were cloned into expression plasmids and obtained from ATUM Bio (Newark, Calif.). Proteins were translated as fusions with 6×-His, 8×-Arg, and SUMO at the N-terminus. A third construct of human PKR was truncated, residues 50-574, and similarly cloned for use in crystallography experiments. All proteins were cloned, expressed in E. coli, and purified using similar protocols. Cells were grown at 30° C. in Luria-Bertani broth supplemented with 0.4% glucose to OD600=0.8 and induced with 0.4 mM IPTG at 16° C. for 18 hours. Cells were harvested by centrifugation, resuspended in 50 mM potassium phosphate pH 8.0, 500 mM NaCl, 25 mM imidazole pH 8.0, and 3 mM (3-mercaptoethanol. Cells were lysed using a LM20 microfluidizer from Microfluidics (Westwood, Mass.). The crude lysate was immediately supplemented with 0.2 mM phenylmethylsulfonyl fluoride (PMSF) and centrifuged at 20,000 g for 20 minutes. The soluble fraction was subsequently incubated with 2 mL Ni-NTA (GE Healthcare) per 1,000 ODs for 1 hour at 4° C. Following incubation with the Ni-NTA resin, lysate was removed by pelleting resin at 2,500 g for 3 minutes and washed 3 times with 9 bed volumes of 50 mM potassium phosphate pH 8.0, 500 mM NaCl, 25 mM imidazole, and 3 mM 3-mercaptoethanol. Following the batch wash Ni-NTA resin was loaded onto a gravity column and His-tagged protein was eluted with 6 bed volumes of 10 mM Tris/HCl pH 8.0, 200 mM NaCl, 500 mM imidazole, and 3 mM (3-mercaptoethanol. Eluted protein was dialyzed overnight against 10 mM Tris/HCl pH 8.0, 200 mM NaCl, and 1 mM DTT and the 6×-His-8×-Arg-SUMO-tag was cleaved using a 20:1 molar ratio of protein:3C protease. The protein was purified by anion exchange chromatography on a HiTrapQ or MonoQ 10/100 GL column (GE Healthcare) via a linear NaCl gradient and twice by size exclusion chromatography using a Superdex S200 26/60 column (GE Healthcare) run in 10 mM Tris/HCl pH 8.0, 200 mM NaCl, 10 mM MgCl2, 1 mM DTT. Proteins were concentrated to −12 mg/mL for crystallization and flash frozen for storage.
Biochemical Assay for Activation of Pyruvate Kinase R
Activation of pyruvate kinase R (PKR) and pyruvate kinase M2 (PKM2) were measured using a luminescence based measurement of ATP generation and the Kinase-Glo luminescent kinase reagent kit.

T1 sequence (P30613 14-574): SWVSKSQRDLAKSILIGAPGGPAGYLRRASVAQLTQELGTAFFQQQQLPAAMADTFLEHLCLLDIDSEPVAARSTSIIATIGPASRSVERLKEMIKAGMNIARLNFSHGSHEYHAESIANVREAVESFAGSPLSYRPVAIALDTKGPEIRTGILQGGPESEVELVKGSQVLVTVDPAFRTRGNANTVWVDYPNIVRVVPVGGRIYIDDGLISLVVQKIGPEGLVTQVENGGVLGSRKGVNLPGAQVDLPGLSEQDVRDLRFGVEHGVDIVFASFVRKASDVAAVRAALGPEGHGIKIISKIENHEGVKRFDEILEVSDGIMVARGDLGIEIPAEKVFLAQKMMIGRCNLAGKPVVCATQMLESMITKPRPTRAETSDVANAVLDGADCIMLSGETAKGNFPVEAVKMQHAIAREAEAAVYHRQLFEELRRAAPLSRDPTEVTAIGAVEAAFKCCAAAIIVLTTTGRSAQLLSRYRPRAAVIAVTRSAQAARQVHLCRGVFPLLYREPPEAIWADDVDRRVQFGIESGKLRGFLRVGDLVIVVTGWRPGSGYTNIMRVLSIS

Row | AC50 [nM] | Emax [%] | Structure (SMILES)
1 | 85 | 71 | Cc1nc(CNC(=O)N(C)Cc2ncnn2-c2ccc3cccnc3c2)n(-c2ccc(Cl)c(F)c2)n1 [Compound 54, 3-{[1-(4-chloro-3-fluorophenyl)-3-methyl-1H-1,2,4-triazol-5-yl]methyl}-1-methyl-1-{[1-(quinolin-7-yl)-1H-1,2,4-triazol-5-yl]methyl}urea]
2 | 79 | 90 | Cc1nc(CNC(=O)NCc2nc(C3CC3)nn2-c2ccc3cccnc3c2)n(-c2ccc(Cl)c(F)c2)n1 [Compound 55, 3-{[1-(4-chloro-3-fluorophenyl)-3-methyl-1H-1,2,4-triazol-5-yl]methyl}-1-{[3-cyclopropyl-1-(quinolin-7-yl)-1H-1,2,4-triazol-5-yl]methyl}urea]
3 | 1100 | 106 | O=C(NCc1nnnn1-c1ccc(F)c(F)c1)NCc1nnnn1-c1ccc(F)c(F)c1 [Compound 56, 1,3-bis({[1-(3,4-difluorophenyl)-1H-1,2,3,4-tetrazol-5-yl]methyl})urea]
4 | 64 | 87 | Cc1ccc(-n2ncnc2CNC(=O)NCc2ncnn2-c2ccc(C)c(C)c2)cc1C [Compound 57, 1,3-bis({[1-(3,4-dimethylphenyl)-1H-1,2,4-triazol-5-yl]methyl})urea]
5 | 1200 | 86 | Cc1cc(-n2nnnc2CNC(=O)NCc2nnnn2-c2ccc(Cl)c(C)c2)ccc1Cl [Compound 59, 1,3-bis({[1-(4-chloro-3-methylphenyl)-1H-1,2,3,4-tetrazol-5-yl]methyl})urea]
6 | 180 | 82 | O=C(NCc1nnnn1-c1ccc(Cl)c(Cl)c1)NCc1nnnn1-c1ccc(Cl)c(Cl)c1 [Compound 60, 1,3-bis({[1-(3,4-dichlorophenyl)-1H-1,2,3,4-tetrazol-5-yl]methyl})urea]
7 | 11 | 36 | O=C(NCc1ncnn1-c1ccc(Cl)cc1)NCc1ncnn1-c1ccc(Cl)cc1 [Compound 61, 1,3-bis({[1-(4-chlorophenyl)-1H-1,2,4-triazol-5-yl]methyl})urea]
8 | 210 | 66 | Cc1cc(-n2nnnc2CNC(=O)NCc2nnnn2-c2ccc(F)c(C)c2)ccc1F [Compound 62, 1,3-bis({[1-(4-fluoro-3-methylphenyl)-1H-1,2,3,4-tetrazol-5-yl]methyl})urea]
9 | 3100 | 65 | O=C(NCc1ncnn1-c1cc(F)cc(Cl)c1)NCc1ncnn1-c1cc(F)cc(Cl)c1 [Compound 68, 1,3-bis({[1-(3-chloro-5-fluorophenyl)-1H-1,2,4-triazol-5-yl]methyl})urea]
10 | 33 | 47 | O=C(NCc1ncnn1-c1ccc(Cl)c(F)c1)NCc1ncnn1-c1ccc2cccnc2c1 [Compound 75, 1-{[1-(4-chloro-3-fluorophenyl)-1H-1,2,4-triazol-5-yl]methyl}-3-{[1-(quinolin-7-yl)-1H-1,2,4-triazol-5-yl]methyl}urea]
11 | 51 | 93 | Cc1nc(CNC(=O)NCc2nc(C)nn2-c2ccc(Cl)c(F)c2)n(-c2ccc(Cl)c(F)c2)n1 [Compound 77, 1,3-bis({[1-(4-chloro-3-fluorophenyl)-3-methyl-1H-1,2,4-triazol-5-yl]methyl})urea]
12 | 110 | 88 | Cc1nc(CNC(=O)N(C)Cc2nc(C)nn2-c2ccc(Cl)c(F)c2)n(-c2ccc(Cl)c(F)c2)n1 [Compound 78, 1,3-bis({[1-(4-chloro-3-fluorophenyl)-3-methyl-1H-1,2,4-triazol-5-yl]methyl})-1-methylurea]
13 | 160 | 53 | Cc1ccc(-n2ncnc2CN(C)C(=O)NCc2nc(C)nn2-c2ccc(Cl)c(F)c2)cn1 [Compound 79, 3-{[1-(4-chloro-3-fluorophenyl)-3-methyl-1H-1,2,4-triazol-5-yl]methyl}-1-methyl-1-{[1-(6-methylpyridin-3-yl)-1H-1,2,4-triazol-5-yl]methyl}urea]

The next lines start with the compound.

Row | Structure (SMILES) | AC50 [nM] | Emax [%]
14 | Cn1ncc2cc(-n3ncnc3CNC(=O)NCc3ncnn3-c3ccc(Cl)c(F)c3)ccc21 [Compound 52, 1-{[1-(4-chloro-3-fluorophenyl)-1H-1,2,4-triazol-5-yl]methyl}-3-{[1-(1-methyl-1H-indazol-5-yl)-1H-1,2,4-triazol-5-yl]methyl}urea] | 24 | 37
15 | Cc1nc(CN(C)C(=O)NCc2ncnn2-c2ccc3cccnc3c2)n(-c2ccc(Cl)c(F)c2)n1 [Compound 53, 1-{[1-(4-chloro-3-fluorophenyl)-3-methyl-1H-1,2,4-triazol-5-yl]methyl}-1-methyl-3-{[1-(quinolin-7-yl)-1H-1,2,4-triazol-5-yl]methyl}urea] | 120 | 73
16 | Cc1ccc(-n2nnnc2CNC(=O)NCc2nnnn2-c2ccc(C)c(F)c2)cc1F [Compound 58, 1,3-bis({[1-(3-fluoro-4-methylphenyl)-1H-1,2,3,4-tetrazol-5-yl]methyl})urea] | 220 | 88
17 | O=C(NCc1nnnn1-c1ccc(Cl)c(F)c1)NCc1nnnn1-c1ccc(Cl)c(F)c1 [Compound 63, 1,3-bis({[1-(4-chloro-3-fluorophenyl)-1H-1,2,3,4-tetrazol-5-yl]methyl})urea] | 63 | 99
18 | O=C(NCc1ncnn1-c1ccc(F)c(Cl)c1)NCc1ncnn1-c1ccc(F)c(Cl)c1 [Compound 64, 1,3-bis({[1-(3-chloro-4-fluorophenyl)-1H-1,2,4-triazol-5-yl]methyl})urea] | 120 | 46
19 | COc1ccc(-n2ncnc2CNC(=O)NCc2ncnn2-c2ccc(OC)cc2)cc1 [Compound 65, 1,3-bis({[1-(4-methoxyphenyl)-1H-1,2,4-triazol-5-yl]methyl})urea] | 1800 | 62
20 | O=C(NCc1ncnn1-c1ccc(Cl)c(F)c1)NCc1ncnn1-c1ccc(Cl)c(F)c1 [Compound 66, 1,3-bis({[1-(4-chloro-3-fluorophenyl)-1H-1,2,4-triazol-5-yl]methyl})urea] | 13 | 41
21 | Cc1ccc(-n2ncnc2CNC(=O)NCc2ncnn2-c2ccc(C)c(F)c2)cc1F [Compound 67, 1,3-bis({[1-(3-fluoro-4-methylphenyl)-1H-1,2,4-triazol-5-yl]methyl})urea] | 44 | 58
22 | COc1ccc(-n2nnnc2CNC(=O)NCc2nnnn2-c2ccc(OC)cc2)cc1 [Compound 69, 1,3-bis({[1-(4-methoxyphenyl)-1H-1,2,3,4-tetrazol-5-yl]methyl})urea] | 540 | 92
23 | O=C(NCc1nnnn1-c1ccc(F)c(Cl)c1)NCc1nnnn1-c1ccc(F)c(Cl)c1 [Compound 70, 1,3-bis({[1-(3-chloro-4-fluorophenyl)-1H-1,2,3,4-tetrazol-5-yl]methyl})urea] | 110 | 64
24 | O=C(NCc1ncnn1-c1ccc2ncccc2c1)NCc1ncnn1-c1ccc2ncccc2c1 [Compound 71, 1,3-bis({[1-(quinolin-6-yl)-1H-1,2,4-triazol-5-yl]methyl})urea] | 930 | 48
25 | Cc1ccc(-n2nnnc2CNC(=O)NCc2nnnn2C2CCCCC2)cc1C [Compound 72, 1-[(1-cyclohexyl-1H-1,2,3,4-tetrazol-5-yl)methyl]-3-{[1-(3,4-dimethylphenyl)-1H-1,2,3,4-tetrazol-5-yl]methyl}urea] | 1800 | 68
26 | Cc1nc(CNC(=O)NCc2nc(C)nn2-c2ccc(Cl)cc2)n(-c2ccc(Cl)cc2)n1 [Compound 73, 1,3-bis({[1-(4-chlorophenyl)-3-methyl-1H-1,2,4-triazol-5-yl]methyl})urea] | 190 | 107
27 | Cc1ccc(-n2ncnc2CNC(=O)NCc2ncnn2-c2ccc(C)nc2)cn1 [Compound 74, 1,3-bis({[1-(6-methylpyridin-3-yl)-1H-1,2,4-triazol-5-yl]methyl})urea] | 2800 | 36
28 | O=C(NCc1ncnn1-c1ccc(Cl)c(F)c1)NCc1nnnn1-c1ccc2c(c1)OC(F)(F)O2 [Compound 76, 1-{[1-(4-chloro-3-fluorophenyl)-1H-1,2,4-triazol-5-yl]methyl}-3-{[1-(2,2-difluoro-2H-1,3-benzodioxol-5-yl)-1H-1,2,3,4-tetrazol-5-yl]methyl}urea] | 460 | 74
